Laboratory results as given in patent publication US20150266836A1, “AROMATIC SULFIDE COMPOUNDS AND METHODS AND USE THEREOF” (The Regents of the University of California, priority 2014, published 2015).

Tested on: MCF-7 breast cancer cell line
Assay: Proliferation-based anti-breast-cancer assay (CyQUANT Cell Proliferation Assay) against MCF-7 cells
Conditions: Homo sapiens, MCF7, dose-response, 10 concentrations serially diluted from 120 μM, DMEM 2% FBS, normalized to DMSO vehicle, read-out: inhibition of MCF-7 cell proliferation, EC50
Experimental: Biological experiments were performed according to a modified procedure by Sigman et al.
MCF-7 cells were maintained in DMEM/high glucose supplemented with 10% FBS, L-glutamine, and penicillin/streptomycin. Experiments with MCF-7 cells were performed in DMEM/high glucose supplemented with 2% FBS, L-glutamine, and penicillin/streptomycin. MCF-10A cells were maintained in standard medium according to a modified recipe by Brugge et al. DMEM/F12 supplemented with 5% horse serum, 10 μg/mL of human insulin, 0.5 μg/mL of hydrocortisone, 10 ng/mL of EGF, 100 ng/mL of cholera toxin, and penicillin/streptomycin. Experiments with MCF-10A cells were performed in the same medium.
MCF-7 cells were centrifuged in 1×PBS for 20 min, and then the pellet was resuspended in DMEM supplemented with 10% FBS and filtered through a 40 μm nylon cell strainer (Fisher Scientific) to prevent clumping. The cells were seeded at 1500 cells per well in 96-well flat bottom plates suitable for fluorimetry, using 175 μL per well of DMEM supplemented with 10% FBS, and grown for 24 h in 5% CO2 at 37° C. The compounds (including the faslodex positive control) were dissolved in molecular biology grade DMSO to achieve a 3.5 mM stock solution and then sterile filtered through a 0.45 μm PVDF syringe filter unit (Fisher Scientific). The 3.5 mM stock solutions were subsequently diluted to a final concentration of 10 μM in DMEM supplemented with 2% FBS. Additionally, the corresponding DMSO vehicle control was diluted using the same medium.
After 24 h of growth, the cells were treated by replacing the normal media with fresh media containing the individual compounds or vehicle control (day 0). The outer rows of wells were not used to eliminate the possibility of effects due to evaporation of media. The cells were incubated with compound for 48 h and then treated again by aspirating the media and adding fresh media containing the compounds and controls (day 2). This procedure was repeated after an additional 48 h (day 4). After incubating a final 24 h, the 96-well plates were rinsed with 1×PBS, blotted dry, and then frozen at −78° C. overnight (day 5). On day 6, cell proliferation was measured using the fluorescence-based CyQUANT Cell Proliferation Assay Kit (Invitrogen).
Fluorimetry analysis was performed according to a modified procedure by McGowan et al. Cells were stained with 200 μL/well of 1× CyQUANT GR dye in cell lysis buffer for 10 min in the dark at room temperature and quantified by fluorimetry at 535 nm with 485 nm excitation. The fluorescence values were normalized to the DMSO vehicle control. The normalized values were plotted as an average±standard deviation of 6 wells per compound.
MCF-7 cells were centrifuged in 1×PBS for 20 min, and then the pellet was resuspended in DMEM supplemented with 10% FBS and filtered through a 40 μm nylon cell strainer (Fisher Scientific) to prevent clumping. The cells were seeded at 1500 cells per well in 96-well flat bottom plates suitable for fluorimetry, using 175 μL, per well of DMEM supplemented with 10% FBS, and grown for 24 h in 5% CO2 at 37° C. The compounds 19 and 25 were dissolved in molecular biology grade DMSO to achieve a 42 mM stock and then sterile filtered through a 0.45 μm PVDF syringe filter unit (Fisher Scientific). […]
Addition of compounds was performed as specified above for days 0-6. […] The fluorescence values were normalized to the DMSO vehicle controls corresponding to each concentration.

Row | Structure (SMILES) | EC50 [µM]
1 | COc1cc(Sc2nc3ccccc3o2)cc(OC)c1OC [Compound 25, 2-(3,4,5-Trimethoxyphenylthio)benzoxazole] | 4.5
2 | c1ccc(Sc2nnc(-c3ccccc3)o2)cc1 [Compound 19, 2-Phenyl-5-(phenylthio)-1,3,4-oxadiazole] | 7.9

Same assay, conditions: compounds at 10 μM, compared to faslodex (ICI 182,780), FIG. 1

Row | Structure (SMILES) | anticancer activity: inhibition of MCF-7 cell proliferation (result in words)
3 | COc1cc(Sc2nnc(-c3ccccc3)o2)cc(OC)c1OC [Compound 27, 2-Phenyl-5-(3,4,5-trimethoxyphenylthio)-1,3,4-oxadiazole] | performed poorly
4 | c1ccc(Sc2nc3ccccc3o2)cc1 [Compound 16, 2-Phenylthiobenzoxazole] | inactive
5 | c1ccc(Sc2nc3ccccc3s2)cc1 [Compound 15, 2-Phenylthiobenzothiazole] | inactive

Tested on: not given
Assay: not given
Conditions: not given

Row | Structure (SMILES) | melting point [°C]
6 | COc1cc(Sc2ncccn2)cc(OC)c1OC [Compound 24, 2-(3,4,5-Trimethoxyphenylthio)pyrimidine] | 103 to 104
7 | N#Cc1cccc(Sc2ncccn2)c1 [Compound 23, 3-(Pyrimidin-2-ylthio)benzonitrile] | 71 to 73
8 | COc1cc(Sc2nnc(-c3ccccc3)o2)cc(OC)c1OC [Compound 27, 2-Phenyl-5-(3,4,5-trimethoxyphenylthio)-1,3,4-oxadiazole] | 142
9 | COc1cc(Sc2nc3ccccc3o2)cc(OC)c1OC [Compound 25, 2-(3,4,5-Trimethoxyphenylthio)benzoxazole] | 129 to 130
10 | c1ccc(Sc2nnnn2-c2ccccc2)cc1 [Compound 18, 1-Phenyl-5-(phenylthio)-1H-tetrazole] | 129 to 133
11 | Fc1c(F)c(F)c(Sc2ccccc2)c(F)c1F [Compound 11, (Perfluorophenyl)(phenyl)sulfane] | 45 to 48
12 | COc1cc(Sc2nnnn2-c2ccccc2)cc(OC)c1OC [Compound 26, 1-Phenyl-5-(3,4,5-trimethoxyphenylthio)-1H-tetrazole] | 110 to 111
